Laboratory results taken from patent EP0411733A2, “11-Beta-aryle-gona-4,9-dien-3-ones” (SCHERING AKTIENGESELLSCHAFT, priority 1989, dated 1991).

Test system: weibliche gravide Raten
Experiment: abortive effect (inhibition of fertility) in pregnant rats, subcutaneous treatment
Type: in vivo
Conditions: Gesamtdosis 2 mg/Tier/4d, subkutan in Erdnußöl, 5. bis 8. Graviditätstag, Autopsie am 20. Graviditätstag; for Fertilitätshemmung absol.: N = 6
Text: Zur Kennzeichnung der antigestagenen Wirkung dient die tierexperimentell ermittelt abortive Wirkung der Substanzen. Zu diesem Zweck wurden weibliche gravide Raten (positiver Spermiennachweis = 1 Graviditätstag) im Gewicht zwischen 180 und 200 g am 5. bis 8. Graviditätstag mit der Testverbindung in Erdnußöl suspendiert subkutan behandelt. Nach Autopsie am 20. Graviditätstag wurden die Uterie untersucht. Dabei wurde die Anzahl der graviden Weibchen und die durchschnittliche Zahl der Feten pro gravides Tier festgestellt. Der Hemmeffekt wurde wie folgt berechnet: [formula]

Compound | Fertilitätshemmung rel. % [%] | Fertilitätshemmung absol.
C#C[C@]1(OC)CC[C@H]2[C@@H]3CCC4=CC(=O)CCC4=C3[C@@H](c3ccc(C(C)=O)cc3)C[C@@]21C [17β-Methoxy-17α-ethinyl-11β-acetylphenyl, 11β-(4-Acetylphenyl)-17α-ethinyl-17β-methoxy-13-methyl-gona-4,9-dien-3-on] | 100 | 6
CC#C[C@]1(O)CC[C@H]2[C@@H]3CCC4=CC(=O)CCC4=C3[C@@H](c3ccc(N(C)C)cc3)C[C@@]21C [RU 486, 11β-(4-Dimethylaminophenyl)-17β-hydroxy-17α-(prop-1-inyl)-4,9-estradien-3-on, reference compound] | 80 | 
CC#CC1(OC)CCC2C3CCC4=CC(=O)CCC4=C3C(c3ccc(C(C)=O)cc3)CC21C (stereo not drawn) [11β-(4-Acetylphenyl)-17β-methoxy-17α-propinyl-13-methyl-gona-4,9-dien-3-on] | 100 | 6
CC#CC1(OC)CCC2C3CCC4=CC(=O)CCC4=C3C(c3ccc(N(C)C)cc3)CC21C (stereo not drawn) [11β-(4-Dimethylaminophenyl)-17β-methoxy-17α-propinyl-13-methyl-gona-4,9-dien-3-on] | 100 | 6
CO[C@@]12C[C@@H]1C[C@H]1[C@@H]3CCC4=CC(=O)CCC4=C3[C@@H](c3ccc(C(C)=O)cc3)C[C@@]12C [11β-(4-Acetylphenyl)-17β-methoxy-16α,17α-methylen-estra-4,9-dien-3-on] | 100 | 6
COCC1(OC)CCC2C3CCC4=CC(=O)CCC4=C3C(c3ccc(C(C)=O)cc3)CC21C (stereo not drawn) [11β-(4-Acetylphenyl)-17β-methoxy-17α-methoxymethyl-estra-4,9-dien-3-on] | 100 | 6
